Test results from ChEMBL document CHEMBL1201862, “PubChem BioAssay data set” (2004).
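Five concentrations, 48 hours, 96-well plates. The concentration for 50% growth inhibition is given as GI50.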 Calls of active or inactive are those of the source. Rule as the data show it: active = GI50 up to about 1.1 µM and inactive = higher.

How the values were obtained:
Experiment in all cases: growth of human tumour cells (NCI), 48 h
[1] = tested on: HOP-92
[2] = tested on: HCT-15
[3] = tested on: OVCAR-5
[4] = tested on: M14
[5] = tested on: SK-MEL-2
[6] = tested on: A549
[7] = tested on: SK-OV-3
[8] = tested on: CAKI-1
[9] = tested on: SK-MEL-28
[10] = tested on: MDA-N
[11] = tested on: U-251
[12] = tested on: Malme-3M
[13] = tested on: LOX IMVI
[14] = tested on: CCRF-CEM
[15] = tested on: NCI/ADR-RES
[16] = tested on: SK-MEL-5
[17] = tested on: HCT-116
[18] = tested on: UACC-257
[19] = tested on: OVCAR-4
[20] = tested on: K562

Measured: GI50

CSc1nc(SC)c2ncn(C3CC(Oc4ccc(C)cc4)C(COc4ccc(C)cc4)O3)c2n1 (centres undefined)
inactive: [1] > 100 µM | [3] > 100 µM | [4] > 100 µM | [5] > 100 µM | [6] > 100 µM | [7] > 100 µM | [8] > 100 µM | [9] > 100 µM | [10] > 100 µM | [11] > 100 µM | [12] > 100 µM | [13] > 100 µM | [14] > 100 µM | [15] > 100 µM | [16] > 100 µM | [17] > 100 µM | [18] > 100 µM | [19] > 100 µM
> 100 µM: [2]

O=c1[nH]nc(Cc2ccccc2)n1N=C1CCCCC1
inactive: [1] > 100 µM | [3] 3.78 µM | [4] > 100 µM | [5] > 100 µM | [6] > 100 µM | [8] > 100 µM | [9] > 100 µM | [10] > 100 µM | [11] > 100 µM | [12] > 100 µM | [13] > 100 µM | [20] > 100 µM | [14] > 100 µM | [15] > 100 µM | [16] > 100 µM | [17] > 100 µM | [18] > 100 µM | [19] > 100 µM
> 100 µM: [2]

O=C(C=P(c1ccccc1)(c1ccccc1)c1ccccc1)C12CC3CC(CC(C3)C1)C2
13.4 µM: [2]
active: [20] < 0.01 µM
inactive: [1] 20.5 µM | [3] 17.1 µM | [4] 16 µM | [5] 15.8 µM | [6] 16.7 µM | [8] 16.1 µM | [9] 16.8 µM | [10] 14.3 µM | [11] 17.7 µM | [12] 19.2 µM | [13] 16.4 µM | [14] 14.4 µM | [15] 16.5 µM | [16] 14.8 µM | [17] 13.2 µM | [18] 17.2 µM | [19] 18.7 µM

CCC/N=C/c1c(O)c(O)c(C(C)C)c2cc(C)c(-c3c(C)cc4c(C(C)C)c(O)c(O)c(/C=N/CCC)c4c3O)c(O)c12
7.46 µM: [2]
inactive: [1] 2.49 µM | [3] 10 µM | [4] 7.41 µM | [5] 2.76 µM | [6] 8.05 µM | [7] 4.75 µM | [8] 25.8 µM | [9] 12.6 µM | [10] 8.63 µM | [11] 2.07 µM | [13] 6.04 µM | [20] 2.96 µM | [14] 1.54 µM | [15] 30.1 µM | [16] 18.7 µM | [17] 3.44 µM | [18] 9.59 µM | [19] 4.38 µM

S=C=Nc1ccc(CSc2nc3ccccc3[nH]2)cc1
15 µM: [2]
inactive: [1] 16.8 µM | [3] 18.2 µM | [5] 18.9 µM | [6] 17.1 µM | [7] 21.6 µM | [8] 17.7 µM | [9] 18.7 µM | [10] 15.9 µM | [11] 17.1 µM | [12] 17.6 µM | [13] 17.2 µM | [20] 39.4 µM | [14] 29.5 µM | [15] 18 µM | [16] 15.9 µM | [17] 24 µM | [18] 19.3 µM | [19] 17.3 µM

NS(=O)(=O)c1ccc(NC(=O)Nc2ccccc2F)cc1
> 100 µM: [2]
inactive: [1] > 100 µM | [3] > 100 µM | [4] 82.4 µM | [5] > 100 µM | [6] > 100 µM | [7] > 100 µM | [8] > 100 µM | [9] > 100 µM | [10] > 100 µM | [11] > 100 µM | [12] > 100 µM | [13] > 100 µM | [20] > 100 µM | [15] > 100 µM | [16] > 100 µM | [17] > 100 µM | [18] > 100 µM | [19] > 100 µM
